Tests used:
[1] = test system: NSCLC patients with RET-alterations; conditions: Subbiah et al. 2018; cited from earlier work
RET-driven models = conditions: several RET-driven models; cited from earlier work
[2] = test system: RET, ERK1/2 and AKT phosphorylation in PC9^CCDC6-RET cells; assay: Western blot of downstream signaling; assay type: cell-based; conditions: 6 hours
Protocol: FIG. 4A is a western blot for PC9^EV and PC9^CCDC6-RET cells treated with 100 nM afatinib, 1 μM osimertinib, Compound 1, or combinations thereof for 6 hours and harvested for western blotting with the antibodies.
FIG. 5A is a western blot for PC^9V and PC9^CCDC6-RET cells treated with 100 nM afatinib, 1 μM osimertinib, cabozanitinib, or combinations thereof for 6 hours and harvested for western blot analysis.
(§1) Afatinib, osimertinib, and cabozantinib were purchased from Selleck Chemicals and resuspended in DMSO. Phospho-EGFR (Y1068), EGFR, pBRAF (Ser445), RET, pAKT (Ser473), AKT, pMEK1/2 (Ser217/221), MEK1/2, pERK1/2 (Thr202/204), ERK1/2, and Actin antibodies were purchased from Cell Signaling Technology. pRET (Y1062) antibody was obtained from Abcam.

RET oncogenic mutants = conditions: cellular systems; cited from earlier work
[3] = test system: MGH134 parental cells (EV); assay: Cell proliferation (CellTiter-Glo); assay type: cell-based; conditions: 1 μM osimertinib, over five days
[4] = test system: MGH134^CCDC6-RET cells (EGFR L858R/T790M)
Protocol: (§2) PC9 and MGH134 cells expressing the CCDC6-RET gene fusion or empty vector (EV) were treated with 1 μM osimertinib or vehicle (VEH) and cell proliferation determined over the course of five days (ratio compared to the beginning of treatment). Data shown are the mean±s.e.m. of three independent biological replicates.
(§3) Data are shown as a percentage of vehicle treated control and are the mean±s.e.m of three independent biological replicates.
(§4) For drug dose-response assays, cells were seeded into 96-well plates 24 hours before addition of drug. Cell proliferation was determined by CellTiter-Glo assay (Promega) 72-120 hours after adding drug, using standard protocols. For time-course experiments, multiple plates were seeded and drugged in identical fashion, and at the indicated time points, the plates were frozen at −80° C.; all plates in an experiment were developed with CellTiter-Glo simultaneously. Luminescence was measured with SpectraMax i3x Multi-Mode Microplate Reader (Molecular Devices).
(§5) To determine whether CCDC6-RET expression is sufficient to cause acquired drug resistance, CCDC6-RET fusion expressing cell line models were generated by lentiviral infection of PC9 (EGFR del19) and MGH134 (EGFR L858R/T790M) cells (FIG. 2).

[5] = test system: PC9^CCDC6-RET cells (EGFR del19); assay: Cell proliferation / viability (CellTiter-Glo); assay type: cell-based
Protocol: as §2, §3, §3, §4, §5

[6] = test system: RET, ERK1/2 and AKT phosphorylation in MGH134^CCDC6-RET cells; assay: Western blot of downstream signaling; assay type: cell-based; conditions: EGFR inhibitor alone (1 μM osimertinib), 6 hours
Protocol: FIG. 4B is a western blot for MGH134^EV and MGH134^CCDC6-RET cells treated with 1 μM osimertinib, cabozantinib, and Compound 1 or combinations thereof for 6 hours and harvested for western blotting with the indicated antibodies.
as §1

PC9 parental cells (EV) = assay: Cell proliferation (CellTiter-Glo); assay type: cell-based; conditions: 1 μM osimertinib, over five days
[7] = 1 μM osimertinib, over five days

Row | SMILES | clinical responses [1] | off-target toxicity [1] | antitumor efficacy (RET-driven models) | RET phosphorylation ([2]; Compound 1 alone) | downstream ERK or AKT phosphorylation ([2]; Compound 1 alone) | potency of inhibition of kinase activity (RET oncogenic mutants) | cell proliferation [3] | proliferation rate ([4]; 1 μM osimertinib vs vehicle) | cell proliferation [4, 7] | proliferation rate ([5]; 1 μM osimertinib vs vehicle) | cell proliferation [5, 7] | RET, ERK1/2, and AKT phosphorylation ([2]; 100 nM afatinib or 1 μM osimertinib alone) | RET, ERK1/2, and AKT phosphorylation [6] | cell proliferation (PC9 parental cells (EV))
1 | CO[C@]1(C(=O)N[C@@H](C)c2ccc(-n3cc(F)cn3)nc2)CC[C@H](c2nc(C)cc(Nc3cc(C)[nH]n3)n2)CC1 [Compound 1, (1S,4R)—N—((S)-1-(6-(4-fluoro-1H-pyrazol-1-yl)pyridine-3-yl)ethyl)-1-methoxy-4-(4-methyl-6-((5-methyl-1H-pyrazol-3-yl)amino)pyrimidin-2-yl)cyclohexanecarboxamide] | durable clinical responses | without notable off-target toxicity | dose-dependent antitumor efficacy | suppressed | did not decrease | low nanomolar potency | – | – | – | – | – | – | – | –
2 | C=CC(=O)Nc1cc(Nc2nccc(-c3cn(C)c4ccccc34)n2)c(OC)cc1N(C)CCN(C)C [osimertinib] | – | – | – | – | – | – | net decrease in cell viability | decreased | continued to proliferate | decreased | continued to proliferate | retained | retained | net decrease in cell viability

— patent US20210308134A1, “TREATMENT OF EGFR-MUTANT CANCER” (BLUEPRINT MEDICINES CORPORATION, priority 2018, published 2021)
